Laboratory results published in patent publication US20240245711A1, “A 19-NOR C3,3-DISUBSTITUTED C21-N-PYRAZOLYL STEROID FOR THE TREATMENT OF MAJOR DEPRESSIVE DISORDER” (Sage Therapeutics, Inc., priority 2021, published 2024).
Values joined by “and” are separate entries in the source; they are usually repeats but may differ in a detail not shown here. Equal values may be shown once.

System: adult subjects with Major Depressive Disorder
Assay: Phase 3 open-label 1-year study: need for re-treatment (number of and time to re-treatments)
Type: in vivo, human
Details: for Subjects with No re-treatment (Cycle 1), n (%) / Subjects with Only 1 re-treatment (Cycle 2), n (%) / Subjects with Only 2 re-treatment (Cycle 3), n (%) / Subjects with Only 3 re-treatment (Cycle 4), n (%) / Subjects with Only 4 re-treatment (Cycle 5), n (%): FAS; for Time to re-treatment, Mean (SD): Low Dose Cohort (FAS)
Excerpt: Secondary Objective: To assess the need for re-treatment with Compound (1) following initial treatment in adults with MDD currently experiencing an MDE over a 1-year period, and to assess the response of initial treatment and re-treatment(s) with Compound (1) following an initial 2-week treatment period in adults with MDD currently experiencing an MDE over a 1-year period.
Secondary Endpoints: The need for re-treatment with Compound (1) as assessed by: time to first re-treatment (Kaplan-Meier curves), number of subjects achieving the requirements for re-treatment, number of re-treatment cycles for each subject, the response of initial treatment and/or re-treatment as assessed by: change from baseline in the 17-item Hamilton Rating Scale for Depression (HAM-D) total score at the end of each 14-day treatment (initial and/or re-treatment) period, HAM-D response at the end of each 14-day treatment (initial and/or re-treatment) period, defined as a ≥50% reduction in HAM-D score from baseline, HAM-D remission at the end of each 14-day treatment (initial and/or re-treatment) period, defined as HAM-D total score≤7, Clinical Global Impression-Improvement (CGI-I) response, defined as “much improved” or “very much improved”, at the end of each 14-day treatment (initial and/or re-treatment) period, change from baseline in Clinical Global Impression-Severity (CGI-S) score at the end of each 14-day treatment (initial and/or re-treatment) period.
Subjects who continued in the Observation Period were monitored remotely via PHQ-9 assessment every two weeks. If PHQ-9 score was >=10 at any assessment, PHQ-9 assessment was switch to every week until the score came down below 10 or the subject was dosed with Compound (1) in a subsequent cycle, whichever was earlier. A subject was to come back to the site for HAM-D assessment within a week of PHQ-9 score >=10; if the HAM-D total score >=20 and at least 56 days had elapsed since the last dose of Compound (1), another dosing cycle of Compound (1) were to start. If any of these criteria were not met, the subject couldn't be treated with Compound (1) at that time. Without the trigger of PHQ-9>=10 the subject was to have a clinic visit every 8 weeks. A subject could have at most 5 cycles of treatment within a year. FIG. 2 is a depiction of the eligibility criteria of the study.
The cohorts pertaining to the different doses that the subjects received were defined as following: • 50 mg cohort: This cohort includes subjects who have initiated treatment with 50 mg and received re-treatment with 50 mg only. • 30 mg cohort: This cohort includes subjects who have initiated treatment with 30 mg regardless of the dose they have received in re-treatments. • Low dose cohort: This cohort includes subjects who have initiated treatment with 30 mg and received re-treatment with 30 mg only. • Dose switch cohort: This cohort includes subjects who have received initial treatment with 30 mg and at least one subsequent re-treatment with 50 mg. • Study Period X: starts on the date of the first dose of Compound (1) in cycle X and goes up to one day prior to the first dose of the next cycle. In some embodiments, X is any number from 1 to 5. • Treatment Period X: starts on the date of the first dose of Compound (1) in cycle X and goes up to one day after the last dose in cycle X. In some embodiments, X is any number from 1 to 5. • Treatment Cycle X: starts on the date of the first dose of Compound (1) in cycle X and goes up to 14 days after the last dose in cycle X. The treatment cycles may be denoted as C1-C5. • Observation period X: starts the day after Treatment Cycle X ends and goes up to one day prior to the start of next treatment cycle. In some embodiments, X is any number from 1 to 5.
Analysis Sets: The safety set was defined as all subjects who were administered study drug. The period-specific safety set includes subjects in the safety set who were administered study drug in the corresponding treatment cycle. […]

[1] = ATD Use at Baseline = No, 30 mg Cohort (N = 280)
[2] = ATD Use at Baseline = No, 50 mg Cohort (N = 86)
[3] = ATD Use at Baseline = Yes, 30 mg Cohort (N = 209)
[4] = ATD Use at Baseline = Yes, 50 mg Cohort (N = 60)

Compound: C[C@@]1(O)CC[C@H]2[C@H](CC[C@@H]3[C@@H]2CC[C@]2(C)[C@@H](C(=O)Cn4cc(C#N)cn4)CC[C@@H]32)C1 [Compound (1), 1-(2-((3R,5R,8R,9R,10S,13S,14S,17S)-3-hydroxy-3,13-dimethylhexadecahydro-1H-cyclopenta[a]phenanthren-17-yl)-2-oxoethyl)-1H-pyrazole-4-carbonitrile]
- Time to re-treatment since last dose in previous cycle, Median (Cycle 5, Dose Switch (FAS)): 58 days
- Time to re-treatment since last dose in previous cycle, Min - Max (Cycle 5, Dose Switch (FAS)): 57 to 79 days
- n/N: FAS subjects eligible and dosed in Cycle X / eligible for dosing in Cycle X (Cycle 5, Low Dose): 20/34
- Time to re-treatment since last dose in previous cycle, Mean (SD) (Cycle 5, Low Dose (FAS)): 63.2 (7.42) Days
- Time to re-treatment since last dose in previous cycle, Median (Cycle 5, Low Dose (FAS)): 60.5 days
- Time to re-treatment since last dose in previous cycle, Min - Max (Cycle 5, Low Dose (FAS)): 58 to 86 days
- Dosed in at least 1 re-treatment cycle, % of eligible (Dose Switch (80 eligible)): 80 (100%)
- Qualified to be retreated in at least 1 more cycle (HAM-D total score >= 20), % of eligible (Dose Switch (80 eligible)): 80 (100%)
- Subjects with No re-treatment (Cycle 1), n (%) of FAS (Dose Switch (N = 80)): 0%
- Subjects with Only 1 re-treatment (Cycle 2), n (%) of FAS (Dose Switch (N = 80)): 9 (11.3%)
- Subjects with Only 2 re-treatment (Cycle 3), n (%) of FAS (Dose Switch (N = 80)): 18 (22.5%)
- Subjects with Only 3 re-treatment (Cycle 4), n (%) of FAS (Dose Switch (N = 80)): 30 (37.5%)
- Subjects with Only 4 re-treatment (Cycle 5), n (%) of FAS (Dose Switch (N = 80)): 23 (28.8%)
- Average (range) number of re-treatments per subject over 1-year follow-up (Dose Switch Cohort): 2.8 (1-4)
- FAS Subjects Dosed in C2, n (%) of FAS (Dose Switch Cohort): 80 (100%)
- FAS Subjects dosed in C3, n (%) of FAS (Dose Switch Cohort): 71 (88.8%)
- FAS Subjects dosed in C4, n (%) of FAS (Dose Switch Cohort): 53 (66.3%)
- FAS Subjects dosed in C5, n (%) of FAS (Dose Switch Cohort): 23 (28.8%)
- Subjects with No re-treatment (Cycle 1), n (%) [1]: 114 (40.7%)
- Subjects with Only 1 re-treatment (Cycle 2), n (%) [1]: 80 (28.6%)
- Subjects with Only 2 re-treatment (Cycle 3), n (%) [1]: 31 (11.1%)
- Subjects with Only 3 re-treatment (Cycle 4), n (%) [1]: 33 (11.8%)
- Subjects with Only 4 re-treatment (Cycle 5), n (%) [1]: 22 (7.9%)
- Subjects with No re-treatment (Cycle 1), n (%) [2]: 72 (83.7%)
- Subjects with Only 1 re-treatment (Cycle 2), n (%) [2]: 13 (15.1%)
- Subjects with Only 2 re-treatment (Cycle 3), n (%) [2]: 1 (1.2%)
- Subjects with Only 3 re-treatment (Cycle 4), n (%) [2]: 0%
- Subjects with Only 4 re-treatment (Cycle 5), n (%) [2]: 0%
- Subjects with No re-treatment (Cycle 1), n (%) [3]: 96 (45.9%)
- Subjects with Only 1 re-treatment (Cycle 2), n (%) [3]: 45 (21.5%)
- Subjects with Only 2 re-treatment (Cycle 3), n (%) [3]: 27 (12.9%)
- Subjects with Only 3 re-treatment (Cycle 4), n (%) [3]: 20 (9.6%)
- Subjects with Only 4 re-treatment (Cycle 5), n (%) [3]: 21 (10.0%)
- Subjects with No re-treatment (Cycle 1), n (%) [4]: 48 (80.0%)
- Subjects with Only 1 re-treatment (Cycle 2), n (%) [4]: 12 (20.0%)
- Subjects with Only 2 re-treatment (Cycle 3), n (%) [4]: 0%
- Dosed in at least 1 re-treatment cycle, % of eligible (Low Dose (199 of 392 eligible)): 199 0.8%) and 199 (0.8%)
- Qualified to be retreated in at least 1 more cycle (HAM-D total score >= 20), % of eligible (Low Dose (392 eligible)): 225 (57.4%)
- Subjects with No re-treatment (Cycle 1), n (%) of FAS (Low Dose (N = 409)): 210 (51.3%)
- Subjects with Only 1 re-treatment (Cycle 2), n (%) of FAS (Low Dose (N = 409)): 116 (28.4%)
- Subjects with Only 2 re-treatment (Cycle 3), n (%) of FAS (Low Dose (N = 409)): 40 (9.8%) and 40 (9.7%)
- Subjects with Only 3 re-treatment (Cycle 4), n (%) of FAS (Low Dose (N = 409)): 23 (5.6%)
- Subjects with Only 4 re-treatment (Cycle 5), n (%) of FAS (Low Dose (N = 409)): 20 (4.9%)
- Average (range) number of re-treatments per subject over 1-year follow-up (Low Dose Cohort): 0.8 (0-4) and 0.8
- Average total number of treatments per subject (Low Dose Cohort): 1.8
- Effect of antidepressant use on length of time between re-treatments (Low Dose Cohort): did not make much difference
- FAS Subjects Dosed in C2, n (%) of FAS (Low Dose Cohort): 199 (48.7%)
- FAS Subjects dosed in C3, n (%) of FAS (Low Dose Cohort): 83 (20.3%)
- FAS Subjects dosed in C4, n (%) of FAS (Low Dose Cohort): 43 (10.5%)
- FAS Subjects dosed in C5, n (%) of FAS (Low Dose Cohort): 20 (4.9%)
- Time to re-treatment, Mean (SD) (dosed in Cycle 2, ATD use at baseline of previous cycle No): 97.2 (49.59) Days and 97.2 Days
- Time to re-treatment, Mean (SD) (dosed in Cycle 2, ATD use at baseline of previous cycle Yes): 103.3 (56.26) Days and 103.3 Days
- Time to re-treatment, Mean (SD) (dosed in Cycle 3, ATD use at baseline of previous cycle No): 88.4 (37.52) Days and 88.4 Days
- Time to re-treatment, Mean (SD) (dosed in Cycle 3, ATD use at baseline of previous cycle Yes): 85.9 (32.14) Days and 85.9 Days
- Time to re-treatment, Mean (SD) (dosed in Cycle 4, ATD use at baseline of previous cycle No): 73.0 (18.40) Days and 73.0 Days
- Time to re-treatment, Mean (SD) (dosed in Cycle 4, ATD use at baseline of previous cycle Yes): 71.1 (17.21) Days and 71.1 Days
- Time to re-treatment, Mean (SD) (dosed in Cycle 5, ATD use at baseline of previous cycle No): 61.9 (3.28) Days and 61.9 Days
- Time to re-treatment, Mean (SD) (dosed in Cycle 5, ATD use at baseline of previous cycle Yes): 64.5 (10.09) Days and 64.5 Days
- Re-treatment rates with and without pre-existing antidepressant therapy (in vivo): similar
- Mean (range) number of total treatment courses (overall study population): 1.8 (1-5)
- Patients not requiring additional treatment courses during their time in the study (overall study population): 43.7%
